Patent US9914707B2, “Naphthylamide compound, preparation method and use thereof” (SHANGHAI INSTITUTE OF MATERIA MEDICA, CHINESE ACADEMY OF …, priority 2014, dated 2018)

Tested on: VEGF-induced human umbilical vein endothelial cells (HUVEC) proliferation
Assay: VEGF-induced human umbilical vein endothelial cells (HUVEC) proliferation (SRB)
Format: cell-based
Conditions: for cell activity compared with positive control compound ABT869: VEGF-induced HUVEC proliferation
Procedure: 5000-8000 primary HUVEC cells before 5-15 doublings were seeded to each well of 96-well plate and each well contained 90 μl. The cells were cultured overnight and then starved with 90 μl/well serum-free basal culture medium for 24 h. Then 10 μl different concentration of compound was added to each well. Five concentrations were set and each concentration had 3 wells. After 2 h, 100 ng/mL of VEGF growth-stimulating factor was added. After 48 h, the medium was discarded, the cells were fixed with pre-cooled 10% TCA at 4° C. for 1 h, then washed with distilled water five times and dried in air. Then 100 μl of 4 mg/ml of sulforodamine B (SRB) solution prepared from 1% acetic acid was added to each well to dye 15 minutes at room temperature. The staining solution was discarded and each well was washed with 1% acetic acid five times and then dried in air. Finally, each well was added with 150 μl Tris-HCl solution (10 mM Tris, pH 10.0) and absorbance OD values at 560 nm were measured by microplate reader. Inhibition rate of the compound on HUVEC cell proliferation was measured to reflect VEGF-mediated proliferation inhibition effect of compound.
Inhibition rate of the compound was obtained by the following formula: […]
IC50 values were calculated by inhibition curves with four parameters fitting.

Row | Structure (SMILES) | IC50 (Homo sapiens, primary HUVEC, 100 ng/mL VEGF, 48 h, SRB, read-out: Half inhibitory concentration for VEGF-induced HUVEC proliferation, IC50) [nM] | cell activity compared with positive control compound ABT869
1 | Cc1ccc(F)c(NC(=O)Nc2ccc(-c3cccc4[nH]nc(N)c34)cc2)c1 [ABT869, reference compound] | 2.32 | –
2 | Cc1ccc(NC(=O)c2cccc3cc(-c4cccc5[nH]nc(N)c45)ccc23)cc1 [Compound I-8, 6-(3-amino-1H-indazol-4-yl)-N-(p-methylphenyl)-1-naphthalenecarboxamide] | – | stronger than that of positive control compound ABT869
3 | CCc1cccc(NC(=O)c2cccc3cc(-c4cccc5[nH]nc(N)c45)ccc23)c1 [Compound I-9, 6-(3-amino-1H-indazol-4-yl)-N-(3-ethylphenyl)-1-naphthalenecarboxamide] | – | stronger than that of positive control compound ABT869
4 | Nc1n[nH]c2cccc(-c3ccc4c(C(=O)Nc5cc(F)cc(F)c5)cccc4c3)c12 [Compound I-14, 6-(3-amino-1H-indazol-4-yl)-N-(3,5-difluorophenyl)-1-naphthalenecarboxamide] | – | stronger than that of positive control compound ABT869
5 | Cc1cc(NC(=O)c2cccc3cc(-c4cccc5[nH]nc(N)c45)ccc23)ccc1F [Compound I-21, 6-(3-amino-1H-indazol-4-yl)-N-(4-fluoro-3-methylphenyl)-1-naphthalenecarboxamide] | – | stronger than that of positive control compound ABT869
